Experimental data from patent US8148424B2, “Tocopherols, tocotrienols, other chroman and side chain derivatives and uses thereof” (Research Development Foundation, priority 1998, dated 2012).

What was measured:
[1] = system: P21 in MDA-MB-435 human breast cancer cells; experiment: P21 expression; assay type: cell-based
Excerpt: The mechanisms of growth inhibition by DNA synthesis arrest, cell cycle arrest and by induction of cellular differentiation have not been characterized as fully as the mechanism of growth inhibition by apoptosis. […] Tumor cells cultured with the compounds disclosed herein are growth inhibited in the G1 cell cycle phase, undergo morphological changes and express milk lipids, an indication that the cell cycle blocked cells have undergone differentiation.

[2] = system: human cancer cells from a wide variety of cell lineages; experiment: Apoptosis induction in a battery of tumor cells; assay type: cell-based; details: breast, prostate, leukemia/lymphoid, cervical, ovarian, endometrial, colon, lung cell lines
Method: Cells were cultured at 1.5×10^5 cells/well in 12 well plates. Cells were allowed to adhere overnight, then incubated with novel test compounds at 0.01, 0.1, 1, 5, 10 & 20 μg/mL for 1, 2 and 3 days. After treatment, cells (floating+trypsin released adherent cells) were pelleted, washed and stained with 2 μg/ml DAPI (4′,6-diamidine-2′-phenylindole dihydrochloride) in 100% methanol for 15 minutes at 37° C. and/or 3′-OH ends resulting from DNA fragmentation were detected with the TUNEL (terminal deoxynucleotidyl transferase-mediated dUTP-X 3′ nick end-labeling) technique, and then viewed using a Zeiss ICM 405 microscope. Cells whose nucleus contained clearly condensed or fragmented chromatin or stained for fragmented DNA in the TUNEL assay were scored as apoptotic. Data are presented as percent cells undergoing apoptosis.

[3] = system: HT-29 Human Colon Cancer Cells Transplanted into Nude Mice; experiment: Preclinical chemotherapeutic xenograft study; assay type: in vivo; details: for Percent mean tumor weight gain (mg) following treatments: relative to day 1 of same group
Method: (§1) For the preclinical chemotherapeutic studies, in the absence of an maximum tolerated dose, the mice are supplemented with 30 and 20 mgs/0.1 ml by gavage daily for 21 days. Compound 1 is dissolved in 100% ethanol at 2 grams of compound 1/5 mls of ethanol, and diluted in peanut oil (nonsupplemented vitamin E) to yield 30 and 20 mgs of compound 1 per 0.1 ml. Vehicle control consisted of a mixture of ethanol and peanut oil equivalents. The preclinical chemotherapeutic studies are conducted with compound 1, utilizing human MDA-MB-435 human breast cancer cells, human DU-145 prostate cancer cells, and human HT-20 colon tumor cells transplanted into Balb/c immune compromised nude mice.
(§2) A total of 40 immune compromised nude mice are utilized for testing each test compound (two treatment groups at 20 and 30 mg/day) in each tumor cell type. […] Tumor cells are transplanted subcutaneously into the left flank and permitted to grow to approximately 70 mg in size, test compound treatments by daily gavage are initiated, and continue for a total of 21 days. Mice are monitored daily for tumor size by caliper measurements. Mice are treated for 21 days; however, the mice are sacrificed when the tumors of the vehicle control reached 500 mg in weight. At the completion of the protocol, tumors are excised and tumor size established by weight. At the time of sacrifice, serum, tumor, and heart muscle are taken from animals in the two compound 1 test groups in order to establish levels of compound 1 via HPLC analyses (data not included). The chemotherapeutic effectiveness of compound 1 administered daily at 30 and 20 mgs/day is determined by comparing the tumor size of the two treatment groups with the vehicle control group for each of the three tumor types, and by comparing the size of the tumor in the two treatment groups with the tumor group from the positive control. Treatment is for 21 days, experiments are continued until mean weight of tumor for vehicle control reaches 500 mgs.

[4] = system: MDA-MB-435 Human Breast Cancer Cells Transplanted into Nude Mice; experiment: Preclinical chemotherapeutic xenograft study; assay type: in vivo; details: for Percent mean tumor weight gain (mg) following treatments: relative to day 1 of same group
Method: as §1, §2

[5] = system: DU-145 Human Prostate Cancer Cells Transplanted into Nude Mice; experiment: Preclinical chemotherapeutic xenograft study; assay type: in vivo; details: for Percent mean tumor weight gain (mg) following treatments: relative to day 1 of same group
Method: as §1, §2

[6] = Solubility in ethanol (stock solution); assay type: physicochemical; details: in 5 mls of 100% ethanol, vortex at 37° C.
Excerpt: This is the maximum amount of compound 1 that will go into solution.

[7] = 20 mg/day by gavage for 21 days, day 22
[8] = 30 mg/day by gavage for 21 days, day 22

In the case of `Cc1c(C)c2c(c(C)c1OCC(=O)O)CC[C@@](C)(CCC[C@H](C)CCC[C@H](C)CCCC(C)C)O2` [Compound 1, 2,5,7,8-tetramethyl-(2R-(4R,8R,12-trimethyltridecyl)chroman-6-yloxy)acetic acid], the “P21 mRNA and protein” value [1] is reported as “up-regulated”, the “growth inhibitory (apoptotic inducing) properties specific for human cancer cells” value [2] is reported as “effective” and the “reduction of mean tumor weight vs vehicle control” value (“reduction of mean tumor weight” below) [3, 7] is reported as 33.3%. For the same compound, the “Mean tumor Weights (mg) Following Treatments” value (“Mean tumor Weights” below) ([3]; 20 mg/day gavage, day 1) was 59.5 mg, the “Percent mean tumor weight gain (mg) following treatments” value (“Percent mean tumor weight gain” for short) ([3]; 20 mg/day gavage, day 1) was 100% and the “Mean tumor Weights” value ([3]; 20 mg/day gavage, day 5) was 84.0 mg. For the same compound, the “Percent mean tumor weight gain” value ([3]; 20 mg/day gavage, day 5) was 141.2%, the “Mean tumor Weights” value ([3]; 20 mg/day gavage, day 8) was 97.0 mg and the “Percent mean tumor weight gain” value ([3]; 20 mg/day gavage, day 8) was 163.0%. The “Mean tumor Weights” value ([3]; 20 mg/day gavage, day 12) was 124.6 mg, the “Percent mean tumor weight gain” value ([3]; 20 mg/day gavage, day 12) was 209.4% and the “Mean tumor Weights” value ([3]; 20 mg/day gavage, day 15) was 147.3 mg. For the same compound, the “Percent mean tumor weight gain” value ([3]; 20 mg/day gavage, day 15) was 247.6%, the “Mean tumor Weights” value ([3]; 20 mg/day gavage, day 19) was 198.0 mg and the “Percent mean tumor weight gain” value ([3]; 20 mg/day gavage, day 19) was 332.8%. The “Mean tumor Weights” value ([3]; 20 mg/day gavage, day 22) was 248.2 mg, the “Percent mean tumor weight gain” value ([3]; 20 mg/day gavage, day 22) was 417.1% and the “reduction of mean tumor weight” value [3, 8] was 34.5%. For the same compound, the “Mean tumor Weights” value ([3]; 30 mg/day gavage, day 1) was 40.0 mg, the “Percent mean tumor weight gain” value ([3]; 30 mg/day gavage, day 1) was 100% and the “Mean tumor Weights” value ([3]; 30 mg/day gavage, day 5) was 83.0 mg. For the same compound, the “Percent mean tumor weight gain” value ([3]; 30 mg/day gavage, day 5) was 139.5%, the “Mean tumor Weights” value ([3]; 30 mg/day gavage, day 8) was 96.7 mg and the “Percent mean tumor weight gain” value ([3]; 30 mg/day gavage, day 8) was 162.5%. For the same compound, the “Mean tumor Weights” value ([3]; 30 mg/day gavage, day 12) was 129.3 mg, the “Percent mean tumor weight gain” value ([3]; 30 mg/day gavage, day 12) was 217.3% and the “Mean tumor Weights” value ([3]; 30 mg/day gavage, day 15) was 144.1 mg. For the same compound, the “Percent mean tumor weight gain” value ([3]; 30 mg/day gavage, day 15) was 242.2%, the “Mean tumor Weights” value ([3]; 30 mg/day gavage, day 19) was 176.1 mg and the “Percent mean tumor weight gain” value ([3]; 30 mg/day gavage, day 19) was 296.0%. For the same compound, the “Mean tumor Weights” value ([3]; 30 mg/day gavage, day 22) was 243.8 mg, the “Percent mean tumor weight gain” value ([3]; 30 mg/day gavage, day 22) was 409.7% and the “reduction of mean tumor weight” value ([4]; 20 mg/day by gavage for 21 days, day 21) was 20.7%. For the same compound, the “Mean tumor Weights” value ([4]; 20 mg/day gavage, day 1) was 70.1 mg, the “Percent mean tumor weight gain” value ([4]; 20 mg/day gavage, day 1) was 100% and the “Mean tumor Weights” value ([4]; 20 mg/day gavage, day 4) was 85.8 mg. The “Percent mean tumor weight gain” value ([4]; 20 mg/day gavage, day 4) was 122.4%, the “Mean tumor Weights” value ([4]; 20 mg/day gavage, day 7) was 123.9 mg and the “Percent mean tumor weight gain” value ([4]; 20 mg/day gavage, day 7) was 176.7%. For the same compound, the “Mean tumor Weights” value ([4]; 20 mg/day gavage, day 10) was 127.9 mg, the “Percent mean tumor weight gain” value ([4]; 20 mg/day gavage, day 10) was 182.5% and the “Mean tumor Weights” value ([4]; 20 mg/day gavage, day 14) was 147.2 mg. The “Percent mean tumor weight gain” value ([4]; 20 mg/day gavage, day 14) was 210.0%, the “Mean tumor Weights” value ([4]; 20 mg/day gavage, day 17) was 143.8 mg and the “Percent mean tumor weight gain” value ([4]; 20 mg/day gavage, day 17) was 205.1%. The “Mean tumor Weights” value ([4]; 20 mg/day gavage, day 21) was 179.4 mg, the “Percent mean tumor weight gain” value ([4]; 20 mg/day gavage, day 21) was 255.9% and the “reduction of mean tumor weight” value ([4]; 30 mg/day by gavage for 21 days, day 21) was 44.6%. The “Mean tumor Weights” value ([4]; 30 mg/day gavage, day 1) was 68.1 mg, the “Percent mean tumor weight gain” value ([4]; 30 mg/day gavage, day 1) was 100% and the “Mean tumor Weights” value ([4]; 30 mg/day gavage, day 4) was 85.7 mg. For the same compound, the “Percent mean tumor weight gain” value ([4]; 30 mg/day gavage, day 4) was 125.8%, the “Mean tumor Weights” value ([4]; 30 mg/day gavage, day 7) was 97.3 mg and the “Percent mean tumor weight gain” value ([4]; 30 mg/day gavage, day 7) was 142.9%. For the same compound, the “Mean tumor Weights” value ([4]; 30 mg/day gavage, day 10) was 98.4 mg, the “Percent mean tumor weight gain” value ([4]; 30 mg/day gavage, day 10) was 144.5% and the “Mean tumor Weights” value ([4]; 30 mg/day gavage, day 14) was 126.6 mg. For the same compound, the “Percent mean tumor weight gain” value ([4]; 30 mg/day gavage, day 14) was 185.9%, the “Mean tumor Weights” value ([4]; 30 mg/day gavage, day 17) was 118.7 mg and the “Percent mean tumor weight gain” value ([4]; 30 mg/day gavage, day 17) was 174.3%. The “Mean tumor Weights” value ([4]; 30 mg/day gavage, day 21) was 125.2 mg, the “Percent mean tumor weight gain” value ([4]; 30 mg/day gavage, day 21) was 178.6% and the “reduction of mean tumor weight” value [5, 7] was 31.5%. The “Mean tumor Weights” value ([5]; 20 mg/day gavage, day 1) was 66.5 mg, the “Percent mean tumor weight gain” value ([5]; 20 mg/day gavage, day 1) was 100% and the “Mean tumor Weights” value ([5]; 20 mg/day gavage, day 5) was 103.5 mg. For the same compound, the “Percent mean tumor weight gain” value ([5]; 20 mg/day gavage, day 5) was 155.6%, the “Mean tumor Weights” value ([5]; 20 mg/day gavage, day 8) was 137.9 mg and the “Percent mean tumor weight gain” value ([5]; 20 mg/day gavage, day 8) was 207.4%. For the same compound, the “Mean tumor Weights” value ([5]; 20 mg/day gavage, day 12) was 208 mg, the “Percent mean tumor weight gain” value ([5]; 20 mg/day gavage, day 12) was 312.8% and the “Mean tumor Weights” value ([5]; 20 mg/day gavage, day 15) was 254.8 mg. The “Percent mean tumor weight gain” value ([5]; 20 mg/day gavage, day 15) was 383.2%, the “Mean tumor Weights” value ([5]; 20 mg/day gavage, day 19) was 362.2 mg and the “Percent mean tumor weight gain” value ([5]; 20 mg/day gavage, day 19) was 362.2%. The “Mean tumor Weights” value ([5]; 20 mg/day gavage, day 22) was 370.5 mg, the “Percent mean tumor weight gain” value ([5]; 20 mg/day gavage, day 22) was 544.7% and the “reduction of mean tumor weight” value [5, 8] was 24.8%. The “Mean tumor Weights” value ([5]; 30 mg/day gavage, day 1) was 67.8 mg, the “Percent mean tumor weight gain” value ([5]; 30 mg/day gavage, day 1) was 100% and the “Mean tumor Weights” value ([5]; 30 mg/day gavage, day 5) was 102.5 mg. The “Percent mean tumor weight gain” value ([5]; 30 mg/day gavage, day 5) was 151.2%, the “Mean tumor Weights” value ([5]; 30 mg/day gavage, day 8) was 131.3 mg and the “Percent mean tumor weight gain” value ([5]; 30 mg/day gavage, day 8) was 193.7%. For the same compound, the “Mean tumor Weights” value ([5]; 30 mg/day gavage, day 12) was 241.2 mg, the “Percent mean tumor weight gain” value ([5]; 30 mg/day gavage, day 12) was 355.8% and the “Mean tumor Weights” value ([5]; 30 mg/day gavage, day 15) was 256.8 mg. For the same compound, the “Percent mean tumor weight gain” value ([5]; 30 mg/day gavage, day 15) was 378.8%, the “Mean tumor Weights” value ([5]; 30 mg/day gavage, day 19) was 379.9 mg and the “Percent mean tumor weight gain” value ([5]; 30 mg/day gavage, day 19) was 379.9%. The “Mean tumor Weights” value ([5]; 30 mg/day gavage, day 22) was 407 mg, the “Percent mean tumor weight gain” value ([5]; 30 mg/day gavage, day 22) was 560.3% and the “maximum amount that will go into solution” value [6] was 2 grams.
